Results published in paper PMC9551036, “A selective and orally bioavailable VHL-recruiting PROTAC achieves SMARCA2 degradation in vivo” (Nature Communications, 2022).
Values joined by “and” are separate entries in the source; they are usually repeats but may differ in a detail not shown here. Identical values can stand only once. Like-named read-outs stand apart in the source and are kept apart here.

Legend:
[1] = target: VCB: PROTAC: SMARCA2^BD ternary complex (Homo sapiens, UniProt P40337+P51531); assay: TR-FRET ternary complex affinity and cooperativity, SMARCA2; format: binding; set-up: P51531-2, residues 1373-1493 with additional N-terminal SM residues; GST (TEV site) (N); His6 (TEV site) (N, cleaved yes); made in house; host or cells: SMARCA2^BD: Escherichia coli BL21(DE3)
Sequence of VCB: PROTAC: SMARCA2^BD ternary complex (P51531 with tags, fused parts or gaps isoform P51531-2): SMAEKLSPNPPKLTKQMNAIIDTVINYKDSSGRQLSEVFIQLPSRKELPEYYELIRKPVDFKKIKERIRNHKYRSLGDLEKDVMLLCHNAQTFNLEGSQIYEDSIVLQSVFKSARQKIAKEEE
Sequence of VCB: PROTAC: SMARCA2^BD ternary complex (P40337 54-213): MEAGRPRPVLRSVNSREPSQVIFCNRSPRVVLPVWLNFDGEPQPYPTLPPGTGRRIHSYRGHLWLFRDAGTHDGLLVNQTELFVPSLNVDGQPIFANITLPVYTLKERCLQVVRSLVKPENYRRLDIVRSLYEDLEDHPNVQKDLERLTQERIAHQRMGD
Sequence of VCB: PROTAC: SMARCA2^BD ternary complex (Q15369 17-112 partner): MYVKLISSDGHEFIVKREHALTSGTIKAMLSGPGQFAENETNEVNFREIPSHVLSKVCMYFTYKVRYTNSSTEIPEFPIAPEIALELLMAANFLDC
Sequence of VCB: PROTAC: SMARCA2^BD ternary complex (Q15370 1-104 partner): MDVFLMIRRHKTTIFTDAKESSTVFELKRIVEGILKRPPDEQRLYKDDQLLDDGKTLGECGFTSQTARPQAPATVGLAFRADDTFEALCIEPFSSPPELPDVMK

[2] = target: T1, (Homo sapiens, UniProt P51532); assay: TR-FRET ternary complex affinity and cooperativity, SMARCA4; format: binding
T1 construct: P51532, residues 1448–1569 with additional N-terminal SM residues; GST (TEV site) (N); His6 (TEV site) (N, cleaved yes); made in house; host or cells: SMARCA4^BD: Escherichia coli BL21(DE3)
T1 sequence (P51532 1448-1569): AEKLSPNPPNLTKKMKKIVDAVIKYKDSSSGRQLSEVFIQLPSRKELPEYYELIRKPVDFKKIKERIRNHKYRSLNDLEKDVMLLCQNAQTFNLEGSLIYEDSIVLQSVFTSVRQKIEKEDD

[3] = target: T2, SMARCA4^BD (Homo sapiens, UniProt P51532); assay: SPR binding to immobilised SMARCA4 bromodomain
T2 construct: P51532, residues 1448–1569 with additional N-terminal SM residues; GST (TEV site) (N, cleaved yes); made in house; host or cells: Escherichia coli BL21(DE3); construct from SGC Toronto
T2 sequence (P51532 1448-1569): as above
Method: SMARCA4^BD was provided by the Structural Genomics Consortium (SGC), Toronto[32] and SMARCA2^BD and PRM1^BD5 were synthesised by GeneArt then subcloned into pDEST15 vectors (Invitrogen). The VCB complex was expressed and purified as described previously, with the modification that 0.3 mM IPTG was used for induction of expression. […] Both were stored in 20 mM 4-(2-hydroxyethyl)−1-piperazineethanesulfonic acid (HEPES), 150 mM sodium chloride and 1 mM tris(2-carboxyethyl)phosphine (TCEP) pH 7.5. SMARCA2^BD, SMARCA4^BD and PBRM1^BD5 were expressed in Escherichia coli BL21(DE3) as N-terminal GST fusion proteins with a TEV protease cleavage site. Expression and purification of these proteins has been described previously[32],[33]. Starter cultures were grown overnight at 37 °C in 10 mL of Luria-Bertani (LB) medium with ampicillin (100 μg/mL). The starter cultures were diluted (1:100) in Terrific Broth (TB) medium with ampicillin (100 μg/mL) and grown in a shaking incubator at 37 °C to an optical density (OD600) ~1 before the temperature was lowered for induction (to 23 °C for SMARCA2^BD or 18 °C for SMARCA4^BD and PRRM1^BD5). […] Cells were harvested by centrifugation and stored at −80 °C prior to purification. Cells were resuspended in Lysis buffer and lysed by sonication (20 pulses of 5 s for 4 min) using a Sonopuls HD 3080 (Bandelin, Berlin, Germany) or by homogenisation using a Stansted Pressure Cell Homogeniser (Stansted Fluid Power). The Lysis buffers were as follows: for SMARCA2^BD: 50 mM HEPES, 500 mM sodium chloride, 5% glycerol, 5 mM dithiothreitol (DTT); for SMARCA4^BD: 25 mM HEPES, 0.3 M sodium chloride, 5% glycerol, 10 mM DTT, pH 7.5; for PBRM1^BD5: 25 mM HEPES, 300 mM sodium chloride, 5% glycerol, 10 mM DTT, pH 7.8; in each case supplemented with complete protease inhibitors (Roche). Affinity purification was performed using Glutathione Sepharose 4B (GE Healthcare) in batch mode or on-column. […] For SMARCA2^BD, prior to TEV protease cleavage the eluted GST-tagged BD was first dialysed into desalting buffer (20 mM HEPES, 250 mM sodium chloride, pH 7.0 + 0.5% glycerol). Where TEV cleavage was performed in solution, a second affinity (GST-trap) column purification step was carried out to remove the GST-tag and uncleaved GST-tagged protein. Proteins were further purified by SEC (HiLoad Superdex-75, 16/600) (GE Healthcare) and stored in Storage buffer (for SMARCA2^BD: 20 mM HEPES, 150 mM sodium chloride, pH 7.5; for SMARCA4^BD: 10 mM HEPES, 0.5 M NaCl, 5% glycerol, pH 7.5; for PBRM1^BD5: 20 mM HEPES, 300 mM NaCl, 5 mM DTT, pH 7.8). For AlphaScreen assays, eluted GST-tagged BDs were purified directly by SEC in the respective storage buffers without TEV cleavage. All chromatography purification steps were performed either at room temperature or 4 °C using an ÄKTA FPLC purification system (GE Healthcare) or a plastic Econo-Pac column (Bio-Rad).
SPR data were acquired on Biacore 8K or T200 instruments (Cytiva). Target proteins were immobilised at 25 °C on CM5 chips by amine coupling (EDC/NHS, Cytiva) in HBS-P+ running buffer (pH 7.4), containing 2 mM TCEP. After surface activation with EDC/NHS (contact time 420 s, flow rate 10 µl/min) SMARCA2^BD and SMARCA4^BD at 0.01–0.05 mg/ml in coupling buffer (10 mM Na-Acetate pH 6.5, 0.005% TWEEN 20 and 50 µM PFI-3[13]) were immobilised to a density of 100–5000 Response Units (RU). The reference surface was subsequently deactivated using 1 M ethanolamine. For VCB immobilisation, streptavidin (Sigma Aldrich, prepared at 1 mg/ml in 10 mM sodium acetate coupling buffer, pH 5.0) was immobilised by amine coupling to a density of 3000–5000 RU after which biotinylated VCB complex (0.125 mM in running buffer) was streptavidin-coupled to a density of 100–500 RU. Biotinylated VCB was prepared as previously described[27]: in brief, the complex was mixed 1:1 with EZ-Link NHS–PEG4–biotin (Thermo Scientific) and incubated at room temperature for 1 h.

[4] = PROTAC + VCB, individual replicates, read-out: Ternary SMARCA2 BD EC50 (PROTAC + VCB)
[5] = TR-FRET competition for SMARCA2BD, + VCB, mean ± SD, read-out: TR-FRET Ternary SMARCA2BD EC50 (PROTAC + VCB)
[6] = TR-FRET competition for SMARCA4BD, without VCB, mean ± SD, read-out: TR-FRET SMARCA4BD EC50
[7] = binary, PROTAC alone, individual replicates, read-out: SMARCA4 BD EC50

| SMILES | EC50 [1, 4] | EC50 [1, 5] [nM] | EC50 [2, 6] [nM] | EC50 [2, 7] | Kd ([3]; SMARCA4BD, mean ± SD) [nM] | Kd ([3]; individual replicates) |
| --- | --- | --- | --- | --- | --- | --- |
| Cc1ncsc1-c1ccc(C(CCC(C)CCN2CCC(c3ccc4c(c3)n(C3CCCC3)c3nc(=O)c5c(Br)cccc5n43)CC2)NC(=O)C2CC(O)CN2C(=O)C(NC(=O)C2(F)CC2)C(C)(C)C)cc1 (stereo not drawn) [ACBI2] | 40 nM and 41.1 nM and 43.2 nM and 39.8 nM and 44 nM | 42 ± 2 | 314 ± 121 | 308 nM and 459 nM and 220 nM | 314 ± 76 | 236 nM and 318 nM and 388 nM |
| O=c1nc2n(C3CCCC3)c3ccccc3n2c2cccc(Br)c12 [compound 1] | 381 nM and 365 nM and 425 nM | 389 ± 31 | 857 ± 64 | 800 nM and 849 nM and 927 nM | 1680 ± 317 | 1320 nM and 1830 nM and 1900 nM |
| Nc1cccc2c1c(=O)nc1n(C3CCCC3)c3ccccc3n21 [compound 2] | 1910 nM and 2000 nM and 1540 nM and 2490 nM | 1950 | 2400 | 2340 nM and 2880 nM and 2050 nM | 2750 ± 455 | 2.74 µM and 2.3 µM and 3.21 µM and > 2 µM (2×) |
| CN1CCC(c2ccc3c(c2)n(C2CCCC2)c2nc(=O)c4c(Br)cccc4n32)CC1 [compound 3] | 47 nM (2×) and 96.4 nM and 69.7 nM and 57.6 nM and 57.7 nM and 58.1 nM and 59.4 nM (2×) and 54.3 nM and 59.7 nM and 63.5 nM (2×) and 58 nM and 45.7 nM (2×) and 61 nM and 62.5 nM and 63 nM and 66 nM and 76.9 nM and 76.2 nM and 50.2 nM (2×) and 85.7 nM and 89.5 nM and 39.5 nM and 43.8 nM and 41.8 nM (2×) and 41.3 nM and 35.6 nM and 36.2 nM (2×) and 55 nM (2×) and 47.9 nM and 37.4 nM and 47.3 nM and 34.2 nM and 38 nM and 43.3 nM and 32.2 nM and 42.1 nM and 43.2 nM and 39.4 nM and 37.7 nM and 41.7 nM (2×) and 32.6 nM and 30.6 nM and 34.7 nM and 32.9 nM and 43.9 nM and 57.4 nM and 44.7 nM and 46.2 nM (5×) and 47.6 nM (2×) and 48.7 nM (3×) and 51.6 nM and 50.9 nM and 44.2 nM and 41.9 nM and 46.5 nM and 46.1 nM (2×) and 48.5 nM and 51.2 nM and 50.5 nM and 49.4 nM and 51.5 nM and 52.8 nM and 52.3 nM and 53.6 nM and 53.3 nM and 52.1 nM (2×) and 54.8 nM (2×) and 53.5 nM (2×) and 45.5 nM and 46.3 nM and 53.7 nM and 51.7 nM and 68.5 nM and 52.7 nM and 51.8 nM and 46.9 nM and 45.4 nM and 45.9 nM and 46.6 nM and 42.5 nM and 55.4 nM and 86.5 nM and 52.6 nM and 56.7 nM and 66.2 nM and 63.7 nM and 65.2 nM and 64.5 nM and 64.2 nM and 64.6 nM and 52.2 nM and 55.3 nM (2×) and 96.6 nM and 109 nM and 107 nM and 55.1 nM and 53 nM and 33.2 nM and 32.3 nM and 23.5 nM and 31.2 nM and 34 nM and 96.8 nM and 36 nM and 36.8 nM and 35.3 nM and 36.1 nM and 36.6 nM and 42.7 nM and 44.4 nM (2×) and 78.2 nM and 158 nM and 48.4 nM and 54 nM and 57.8 nM and 53.1 nM and 58.7 nM | 48 ± 17 | 107 ± 29 | 95.4 nM and 105 nM and 124 nM and 115 nM and 117 nM and 113 nM (3×) and 121 nM and 114 nM and 81.2 nM and 90.5 nM and 95.1 nM and 82.4 nM and 86.5 nM and 90.1 nM and 86 nM and 90.3 nM (2×) and 78 nM and 69.2 nM and 191 nM and 161 nM and 107 nM and 99.4 nM and 89 nM and 90.2 nM and 81.3 nM and 182 nM and 188 nM and 131 nM and 128 nM and 126 nM and 132 nM and 94.7 nM and 129 nM and 86.8 nM and 102 nM and 109 nM and 112 nM | 58 ± 10 | 110 nM and 97.7 nM and 113 nM and 69.4 nM and 51 nM and 52.7 nM |
| Cc1ncsc1-c1ccc([C@H](COC(C)CN2CCC(c3ccc4c(c3)n(C3CCCC3)c3nc(=O)c5c(Br)cccc5n43)CC2)NC(=O)[C@@H]2C[C@@H](O)CN2C(=O)[C@@H](NC(=O)C2(F)CC2)C(C)(C)C)cc1 (stereo partly drawn) [compound 9] | 20.6 nM and 18 nM and 20.2 nM and 22.8 nM and 25.6 nM and 25.2 nM and 34 nM and 21.7 nM and 14.5 nM and 19.9 nM and 18.7 nM | 21 ± 5 | 265 ± 34 | 228 nM and 295 nM and 276 nM | 505 ± 184 | 361 nM and 443 nM and 712 nM |
| Cc1ncsc1-c1ccc([C@H](COC(C)CN2CCC(c3ccc4c(c3)n(C3CCCC3)c3nc(=O)c5c(Br)cccc5n43)CC2)NC(=O)[C@@H]2C[C@@H](O)CN2C(=O)[C@@H](NC(=O)C2(N(C)C)CC2)C(C)(C)C)cc1 (stereo partly drawn) [compound 10] | 13.9 nM and 16.3 nM and 16.6 nM and 37.3 nM and 12.6 nM and 9.3 nM and 12.5 nM | 15 ± 9 | 191 ± 85 | 108 nM and 250 nM and 259 nM | 381 ± 28 | 359 nM and 413 nM and 372 nM |
| Cc1ncsc1-c1ccc([C@H](CCCCCN2CCC(c3ccc4c(c3)n(C3CCCC3)c3nc(=O)c5c(Br)cccc5n43)CC2)NC(=O)[C@@H]2C[C@@H](O)CN2C(=O)[C@@H](NC(=O)C2(F)CC2)C(C)(C)C)cc1 [compound 11] | 26.6 nM and 19.7 nM and 14.3 nM and 29.6 nM and 31.9 nM and 31.5 nM and 26.3 nM and 35.9 nM and 20.9 nM and 21.5 nM and 24.4 nM | 25 ± 6 | 279 ± 40 | 241 nM and 322 nM and 280 nM | 297 ± 147 | 201 nM and 223 nM and 466 nM |
